The target of one test is T1, human GLP-1 receptor (Homo sapiens, UniProt P43220).
T1 construct: expressed in transfected cells; host or cells: membranes of BHK cells, parent line BHKTS13, clone FCW467-12A
Kind of test: Assay (I)(a): GLP-1 receptor potency, CRE luciferase reporter gene assay in BHK cells. Format: cell-based. The following applies: BHK cells expressing human GLP-1 receptor, read-out: EC50 GLP-1R. The gist of the method:
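BHK cells (clone FCW467-12A/KZ10-1), 5×10EE3/well, exposed 3 h at 37° C to compound at 1×10EE-13 to 1×10EE-6 M final in medium with 2% ovalbumin and 0.2% Pluronic F-68. Luciferase luminescence read; EC50 (pM) from four-parameter fit.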
For orientation: A reporter such as luciferase makes a cellular process visible.

The target in test [1] is T2, human glucagon receptor (Homo sapiens, UniProt P47871).
T2 construct: expressed in transfected cells; host or cells: membranes of BHK cells, clone BHK hGCGR A3*25
T2 sequence (P47871 26-477): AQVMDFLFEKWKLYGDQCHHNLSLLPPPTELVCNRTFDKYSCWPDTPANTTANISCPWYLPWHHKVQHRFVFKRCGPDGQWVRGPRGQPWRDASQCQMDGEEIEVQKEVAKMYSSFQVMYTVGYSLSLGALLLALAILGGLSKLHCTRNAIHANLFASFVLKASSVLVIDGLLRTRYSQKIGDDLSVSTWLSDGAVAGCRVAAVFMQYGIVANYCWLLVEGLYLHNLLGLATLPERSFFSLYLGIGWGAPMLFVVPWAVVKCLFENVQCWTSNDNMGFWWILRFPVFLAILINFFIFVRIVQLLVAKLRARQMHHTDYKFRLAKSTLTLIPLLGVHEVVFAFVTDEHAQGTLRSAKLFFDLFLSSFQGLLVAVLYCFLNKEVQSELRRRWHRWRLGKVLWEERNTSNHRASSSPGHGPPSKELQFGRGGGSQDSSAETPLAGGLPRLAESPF
Kind of test: Assay (I)(b): glucagon receptor potency, CRE luciferase reporter gene assay in BHK cells. Format: cell-based. The following applies: BHK cells expressing human glucagon receptor, read-out: EC50 GlucagonR. On the procedure:
Assay (I): GLP-1 and Glucagon Receptor Potency The purpose of this example was to test the activity or potency, of the GLP-1 derivatives of the invention, in vitro. The in vitro potency is the measure of human GLP-1 receptor (GLP-1R) or glucagon receptor (glucagonR) activation, respectively, in a whole cell assay. In vitro potency was determined by measuring the cellular response of human GLP-1 or glucagon receptor activation, respectively, in a reporter gene assay. The assay was performed in a BHK cell line that stably expresses either the human GLP-1 receptor or the human glucagon receptor and comprises the DNA for the cAMP response element (CRE) coupled to a promoter and the gene for firefly luciferase (CRE luciferase). […] When assay incubation was completed, the luciferase substrate (luciferin) was added and the enzyme converted luciferin to oxyluciferin and produces bioluminescence. The luminescence was measured as the readout for the assay. […] The cells were counted and adjusted to 5×10EE3 cells/50 μl (1×10EE5 cells/ml) in Assay Medium. […] Each assay plate was read in a Perkin Elmer TopCount NXT instrument. […] EC50 values were calculated by the software and reported in pM.

Test [2] addresses T2, human glucagon receptor. In words: Assay (II)(b): glucagon receptor binding, [125I]-glucagon displacement, SPA on BHK membranes. The following applies: displacement of [125I]-glucagon, membranes with human glucagon receptor; read-out: IC50 GlucagonR. On the procedure:
Assay (II): GLP-1 and Glucagon Receptor Binding The purpose of this assay is to test the in vitro receptor binding activity of the GLP-1 derivatives of the invention. (b) Glucagon Receptor Binding The glucagon receptor (glucagonR) binding activity is a measure of affinity of a derivative for the human glucagon receptor. The glucagon receptor binding of each derivative were determined with competitive binding, displacing [^125I]-glucagon bound to glucagon receptors expressed in cell membranes associated with wheat germ agglutinin (WGA) scintillation proximity assay (SPA) beads. Each derivative was added in a series of concentrations to isolated membranes comprising the human glucagon receptor and displacement of the labelled ligand was monitored. The receptor binding was reported as the concentration at which half of the labelled ligand is displaced from the receptor, the IC^50 value. The following chemicals were used in the assay: DMEM w Glutamax (Gibco 61965-026), Pen/strep (Invitrogen 15140-122), G418 (Invitrogen 10131-027), Versene (Gibco 15040), 1 M Hepes (Gibco 15630), PBS (Invitrogen 14190-094), fetal calf serum (Invitrogen 16140-071), MgCl2 (Merck 1.05832.1000), EDTA (Invitrogen 15575-038), CaCl2 (Sigma, C5080), Tween 20 (Amresco 0850C335), ovalbumin (Sigma A5503), SPA particles (wheat germ agglutinin (WGA) SPA beads, Perkin Elmer RPNQ0001), [125I]-glucagon (produced in-house), OptiPlate™-96 (Packard 6005290). HME buffer consisted of 25 mM HEPES, 2 mM MgCl2 and 1 mM EDTA, and pH was adjusted to 7.4. Assay buffer consisted of 50 mM HEPES supplemented with 5 mM MgCl2, 1 mM CaCl2, 0.02% Tween 20 and 0.1% Ovalbumin, and pH was adjusted to 7.4. The cells used in this assay (clone BHK hGCGR A3*25) were BHK cells stable transfected with an expression plasmid comprising the cDNA encoding the human glucagon receptor. The cells were grown at 5% CO2 in DMEM, 10% fetal calf serum, 1% Pen/Strep (Penicillin/Streptomycin) and 1.0 mg/ml of the selection marker G418. To make a membrane preparation the cells were grown to approximately 80% confluence. The cells were washed twice in phosphate-buffered saline and harvested. The cells were pelleted using a brief centrifugation and the cell pellet was kept on ice. Lyse the cells by adding approx. 5 ml HME buffer, mix by pipetting and snap freeze in liquid nitrogen. Thaw quickly and add HME buffer to 10 ml. The cell pellet was homogenised with an ULTRA-THURRAX dispersing instrument for 20-30 seconds. The homogenate was centrifuged at 20.000×G, 4° C. for 10 minutes. The pellet was resuspended (homogenised) in 1-2 ml HME buffer. The protein concentration was determined. The membranes were aliquoted and snapfrozen in liquid nitrogen and stored at minus 80° C. • 1. For the receptor binding assay 50 μl of the assay buffer was added to each well of an assay plate. • 2. Test compounds were serially diluted to give the following concentrations: 8×10EE-7 M, 8×10EE-8 M, 8×10EE-9 M, 8×10EE-10 M, 8×10EE-11 M, 8×10EE-12 M and 8×10EE-13 M. Twenty-five μl were added to appropriate wells in the assay plate. • 3. Cell membrane aliquots were thawed and diluted to their working concentration. Fifty μl were added to each well in the assay plate. • 4. WGA SPA beads were suspended in assay buffer at 20 mg/ml. The suspension was diluted to 10 mg/ml in assay buffer just prior to addition to the assay plate. Fifty μl were added to each well in the assay plate. • 5. The incubation was started by adding 25 μl of 480 pM solution of [125I]-glucagon to each well of the assay plate. A 25 μl aliquot was reserved for measuring total counts/well. • 6. The assay plate was incubated for 2 h at 25° C. • 7. The assay plate was centrifuged for 10 min at 1500 rpm. • 8. The assay plate was read in a Perkin Elmer TopCount NXT instrument. Calculations The data from the TopCount instrument were transferred to GraphPad Prism software. The software averaged the values for the replicates and performed a non-linear regression. […]
(In general: In a radioligand displacement assay an active substance lowers the binding of a labelled ligand.)

Our source for the EC50 and IC50 values is patent US9988430B2, “Stable GLP-1 based GLP-1/glucagon receptor co-agonists” (Novo Nordisk A/S, priority 2014, dated 2018).

The structures appear in SMILES notation. *1 amine or outer side, *2 acyl side, *3 side chain or, on linkers, in order; H or OH if unused. Where a SMILES comes first, the peptide text is derived from it. Side-chain parts run from the residue outwards. [ ]: non-standard residue; d: D form. The star is where a group is joined. C18 diacid = O=C(O)CCCCCCCCCCCCCCCCC(=O)*; γGlu = O=C(O)[C@H](CCC(=O)[*:2])N[*:1]; C14 diacid = O=C(O)CCCCCCCCCCCCC(=O)*; Desaminohistidyl = O=C(CCc1c[nH]cn1)*; AEEA = NCCOCCOCC(=O)O; Aib = CC(C)(N)C(=O)O

T1 sequence (P43220 24-463): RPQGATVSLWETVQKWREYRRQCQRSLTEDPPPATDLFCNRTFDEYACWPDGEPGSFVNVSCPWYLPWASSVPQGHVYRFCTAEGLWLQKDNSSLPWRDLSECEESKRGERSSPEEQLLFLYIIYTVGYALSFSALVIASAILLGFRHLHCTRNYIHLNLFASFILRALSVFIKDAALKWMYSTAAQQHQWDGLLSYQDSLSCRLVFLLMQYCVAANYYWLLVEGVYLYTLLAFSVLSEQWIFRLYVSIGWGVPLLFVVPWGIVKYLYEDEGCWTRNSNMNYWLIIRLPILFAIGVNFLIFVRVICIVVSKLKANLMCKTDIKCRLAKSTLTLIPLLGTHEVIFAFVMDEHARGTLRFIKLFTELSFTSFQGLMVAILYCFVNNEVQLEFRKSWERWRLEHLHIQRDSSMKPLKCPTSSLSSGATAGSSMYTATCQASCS

In general, EC50 refers to the concentration at which the effect is half-maximal. With `CC[C@H](C)[C@H](NC(=O)[C@H](Cc1ccccc1)NC(=O)[C@H](CCCCNC(=O)COCCOCCNC(=O)COCCOCCNC(=O)CC[C@H](NC(=O)CC[C@H](NC(=O)CC[C@H](NC(=O)CCCCCCCCCCCCCCCCC(=O)O)C(=O)O)C(=O)O)C(=O)O)NC(=O)[C@H](CCCNC(=N)N)NC(=O)[C@H](C)NC(=O)[C@H](C)NC(=O)[C@H](CCC(N)=O)NC(=O)[C@H](CCC(=O)O)NC(=O)[C@H](CCC(=O)O)NC(=O)[C@H](CC(C)C)NC(=O)[C@H](Cc1ccc(O)cc1)NC(=O)[C@H](CCCNC(=N)N)NC(=O)[C@H](CO)NC(=O)[C@@H](NC(=O)[C@H](CC(=O)O)NC(=O)[C@H](CO)NC(=O)[C@@H](NC(=O)[C@H](Cc1ccccc1)NC(=O)[C@@H](NC(=O)CNC(=O)[C@H](Cc1c[nH]cn1)NC(=O)C(C)(C)NC(=O)CCc1c[nH]cn1)[C@@H](C)O)[C@@H](C)O)C(C)C)C(=O)N[C@@H](C)C(=O)N[C@@H](Cc1c[nH]c2ccccc12)C(=O)N[C@@H](CC(C)C)C(=O)N[C@@H](CC(C)C)C(=O)N[C@@H](CCCNC(=N)N)C(=O)O` [Example 19, N^ε27-[2-[2-[2-[[2-[2-[2-[[(4S)-4-carboxy-4-[[(4S)-4-carboxy-4-[[(4S)-4-carboxy-4-(17-carboxyheptadecanoylamino)butanoyl]amino]butanoyl]amino]butanoyl]amino]ethoxy]ethoxy]acetyl]amino]ethoxy]ethoxy]acetyl]-[Imp7,Aib8,His9,Arg18,Glu22,Arg26,Lys27,Leu33,Arg34]-GLP-1-(7-34)-peptide] (Desaminohistidyl-[Aib]HGTFTSDVSRYLEEQAARK([AEEA-AEEA-γGlu-γGlu-γGlu-C18 diacid])FIAWLLR-OH), the EC50 on human GLP-1 receptor was 0.007 nM; at human glucagon receptor [1], 0.143 nM.

As a reminder, the IC50 is the point on the concentration scale where inhibition reaches its midpoint. For `CC[C@H](C)[C@H](NC(=O)[C@H](Cc1ccccc1)NC(=O)[C@H](CCC(=O)O)NC(=O)[C@H](CCCNC(=N)N)NC(=O)[C@H](C)NC(=O)[C@H](C)NC(=O)[C@H](CCC(N)=O)NC(=O)[C@H](CCC(=O)O)NC(=O)[C@H](CCC(=O)O)NC(=O)[C@H](CC(C)C)NC(=O)[C@H](Cc1ccc(O)cc1)NC(=O)[C@H](CCCCN)NC(=O)[C@H](CO)NC(=O)[C@@H](NC(=O)[C@H](CC(=O)O)NC(=O)[C@H](CO)NC(=O)[C@@H](NC(=O)[C@H](Cc1ccccc1)NC(=O)[C@@H](NC(=O)CNC(=O)[C@H](Cc1c[nH]cn1)NC(=O)C(C)(C)NC(=O)CCc1c[nH]cn1)[C@@H](C)O)[C@@H](C)O)C(C)C)C(=O)N[C@@H](C)C(=O)N[C@@H](Cc1c[nH]c2ccccc12)C(=O)N[C@@H](CC(C)C)C(=O)N[C@@H](CC(C)C)C(=O)N[C@@H](CCCCNC(=O)COCCOCCNC(=O)COCCOCCNC(=O)CC[C@H](NC(=O)CC[C@H](NC(=O)CCCCCCCCCCCCC(=O)O)C(=O)O)C(=O)O)C(=O)N[C@H](C(N)=O)[C@@H](C)O` [Example 38, N^ε34-[2-[2-[2-[[2-[2-[2-[[(4S)-4-carboxy-4-[[(4S)-4-carboxy-4-(13-carboxytridecanoylamino)butanoyl]amino]butanoyl]amino]ethoxy]ethoxy]acetyl]amino]ethoxy]ethoxy]acetyl]-[Imp7,Aib8,His9,Lys18,Glu22,Arg26,Leu33,Thr35]-GLP-1-(7-35)-peptide amide] (Desaminohistidyl-[Aib]HGTFTSDVSKYLEEQAAREFIAWLLK([AEEA-AEEA-γGlu-γGlu-C14 diacid])T-NH2), the EC50 on human GLP-1 receptor stood at 0.012 nM. The IC50 at human glucagon receptor [2] turned out to be 3.7 nM.
